Molecular target: T1, LHRH rat pituitary receptor (Rattus norvegicus, UniProt P30969)
T1 construct: from tissue; host or cells: rat pituitary
T1 sequence (P30969 1-327): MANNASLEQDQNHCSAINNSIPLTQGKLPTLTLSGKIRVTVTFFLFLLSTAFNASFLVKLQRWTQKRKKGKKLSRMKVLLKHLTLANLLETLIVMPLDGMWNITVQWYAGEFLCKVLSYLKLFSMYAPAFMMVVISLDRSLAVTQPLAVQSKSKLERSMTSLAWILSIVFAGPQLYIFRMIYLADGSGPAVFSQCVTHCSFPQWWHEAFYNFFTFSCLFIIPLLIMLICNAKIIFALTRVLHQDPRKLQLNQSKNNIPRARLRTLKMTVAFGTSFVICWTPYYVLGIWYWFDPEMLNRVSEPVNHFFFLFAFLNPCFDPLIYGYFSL
Test: LHRH rat pituitary receptor binding (pKI)
Settings: negative logarithm of the equilibrium dissociation constants; for Ki: Table 1, read-out: receptor binding affinity (pKI) (converted)
Procedure: Representative compounds of the present invention were evaluated in in vitro tests for LHRH rat pituitary receptor binding (pKI) and for LH inhibition from rat pituitary cells for antagonist potency (pA2). The tests employed the methods detailed in F. Haviv, et al. J. Med. Chem., 32: 2340-2344 (1989). The receptor binding affinity (pKI) is the negative logarithm of the equilibrium dissociation constants.

Ki	receptor binding affinity (pKI) (Table 1)	Compound
4.37 nM		CC[C@H]1OC(=O)[C@H](C)[C@@H](O[C@H]2C[C@@](C)(OC)[C@@H](O)[C@H](C)O2)[C@H](C)[C@@H](O[C@@H]2O[C@H](C)C[C@H](N(C)CCCc3ccncc3)[C@H]2O)[C@](C)(OC)C[C@@H](C)C(=O)[C@H](C)[C@H]2N(CCc3ccc(F)c(Cl)c3)C(=O)O[C@]12C [Example 81, 3'-N-Desmethyl-3'-N-[3-(4-pyridyl)propyl]-11-deoxy-11-[carboxy-(3-chloro-4-fluorophenethylamino)]-6-O-methyl-erythromycin A 11,12-(cyclic carbamate)]
6.17 nM		CC[C@H]1OC(=O)[C@H](C)[C@@H](O[C@H]2C[C@@](C)(OC)[C@@H](O)[C@H](C)O2)[C@H](C)[C@@H](O[C@@H]2O[C@H](C)C[C@H](N(C)CCCC(F)(F)F)[C@H]2O)[C@](C)(OC)C[C@@H](C)C(=O)[C@H](C)[C@H]2N(CCc3ccc(Cl)c(Cl)c3)C(=O)O[C@]12C [Example 71, 3'-N-Desmethyl-3'-N-(4,4,4-trifluorobutyl)-11-deoxy-11-[carboxy-(3,4-dichlorophenethylamino)]-6-O-methyl-erythromycin A 11,12-(cyclic carbamate)]
1.38 nM		CC[C@H]1OC(=O)[C@H](C)[C@@H](O[C@H]2C[C@@](C)(OC)[C@@H](O)[C@H](C)O2)[C@H](C)[C@@H](O[C@@H]2O[C@H](C)C[C@H](N(C)Cc3ccc([N+](=O)[O-])s3)[C@H]2O)[C@](C)(OC)C[C@@H](C)C(=O)[C@H](C)[C@H]2N(CCc3ccc(Cl)c(Cl)c3)C(=O)O[C@]12C [Example 66, 3'-N-Desmethyl-3'-N-[(5-nitro-2-thienyl]methyl-11-deoxy-11-[carboxy-(3,4-dichlorophenethylamino)]-6-O-methyl-erythromycin A 11,12-(cyclic carbamate)]
	8.11	3'-N-Desmethyl-3'-N-[3-(3-pyridyl)propyl]-11-deoxy-11-[carboxy-(3,4-dichlorophenethylamino)]-6-O-methyl-erythromycin A 11,12-(cyclic carbamate) [Example 79]
6.31 nM		CC[C@H]1OC(=O)[C@H](C)[C@@H](O[C@H]2C[C@@](C)(OC)[C@@H](O)[C@H](C)O2)[C@H](C)[C@@H](O[C@@H]2O[C@H](C)C[C@H](N(C)CCCC(F)(F)F)[C@H]2O)[C@](C)(OC)C[C@@H](C)C(=O)[C@H](C)[C@H]2N(CCc3ccc(F)c(Cl)c3)C(=O)O[C@]12C [Example 51, 3'-N-Desmethyl-3'-N-(4,4,4-trifluorobutyl)-11-deoxy-11-[carboxy-(3-chloro-4-fluorophenethylamino)]-6-O-methyl-erythromycin A 11,12-(cyclic carbamate)]
1.55 nM		CC[C@H]1OC(=O)[C@H](C)[C@@H](O[C@H]2C[C@@](C)(OC)[C@@H](O)[C@H](C)O2)[C@H](C)[C@@H](O[C@@H]2O[C@H](C)C[C@H](N(C)Cc3ccc(CO)o3)[C@H]2O)[C@](C)(OC)C[C@@H](C)C(=O)[C@H](C)[C@H]2N(CCc3ccc(Cl)c(Cl)c3)C(=O)O[C@]12C [Example 58, 3'-N-Desmethyl-3'-N-[2-(5-hydroxymethyl)furyl]methyl-11-deoxy-11-[carboxy-(3,4-dichlorophenethylamino)]-6-O-methyl-erythromycin A 11,12-(cyclic carbamate)]

The remaining lines, values behind:

Compound	Ki	receptor binding affinity (pKI) (Table 1)
CCCN(C)[C@H]1C[C@@H](C)O[C@@H](O[C@@H]2[C@@H](C)[C@H](O[C@H]3C[C@@](C)(OC)[C@@H](O)[C@H](C)O3)[C@@H](C)C(=O)O[C@H](CC)[C@@]3(C)OC(=O)N(CCc4ccc(OC)cc4)[C@@H]3[C@@H](C)C(=O)[C@H](C)C[C@@]2(C)OC)[C@@H]1O [Example 39, 3'-N-Desmethyl-3'-N-propyl-11-deoxy-11-[carboxy-(4-methoxyphenethylamino)]-6-O-methyl-erythromycin A 11,12-(cyclic carbamate)]	5.13 nM	
CC[C@H]1OC(=O)[C@H](C)[C@@H](O[C@H]2C[C@@](C)(OC)[C@@H](O)[C@H](C)O2)[C@H](C)[C@@H](O[C@@H]2O[C@H](C)C[C@H](N(C)Cc3ccc([N+](=O)[O-])o3)[C@H]2O)[C@](C)(OC)C[C@@H](C)C(=O)[C@H](C)[C@H]2N(CCc3ccc(Cl)c(Cl)c3)C(=O)O[C@]12C [Example 68, 3'-N-Desmethyl-3'-N-[5-nitro-2-furylmethyl]-11-deoxy-11-[carboxy-(3,4-dichlorophenethylamino)]-6-O-methyl-erythromycin A 11,12-(cyclic carbamate)]	5.13 nM	
CC[C@H]1OC(=O)[C@H](C)[C@@H](O[C@H]2C[C@@](C)(OC)[C@@H](O)[C@H](C)O2)[C@H](C)[C@@H](O[C@@H]2O[C@H](C)C[C@H](N(C)Cc3ccncc3)[C@H]2O)[C@](C)(OC)C[C@@H](C)C(=O)[C@H](C)[C@H]2N(CCc3ccc(Cl)c(Cl)c3)C(=O)O[C@]12C [Example 92, 3'-N-Desmethyl-3'-N-(4-pyridylmethyl)-11-deoxy-11-[carboxy-(3,4-dichlorophenethylamino)]-6-O-methyl-erythromycin A 11,12-(cyclic carbamate)]	6.31 nM	
CC[C@H]1OC(=O)[C@H](C)[C@@H](O[C@H]2C[C@@](C)(OC)[C@@H](O)[C@H](C)O2)[C@H](C)[C@@H](O[C@@H]2O[C@H](C)C[C@H](N(C)CCCc3cccc(C)n3)[C@H]2O)[C@](C)(OC)C[C@@H](C)C(=O)[C@H](C)[C@H]2N(CCc3ccc(F)c(Cl)c3)C(=O)O[C@]12C [Example 87, 3'-N-Desmethyl-3'-N-[3-(6-methyl-2-pyridyl)propyl]-11-deoxy-11-[carboxy-(3-chloro-4-fluorophenethylamino)]-6-O-methyl-erythromycin A 11,12-(cyclic carbamate)]	2.24 nM	
CC[C@H]1OC(=O)[C@H](C)[C@@H](O[C@H]2C[C@@](C)(OC)[C@@H](O)[C@H](C)O2)[C@H](C)[C@@H](O[C@@H]2O[C@H](C)C[C@H](N(C)C3CCCCC3)[C@H]2O)[C@](C)(OC)C[C@@H](C)C(=O)[C@H](C)[C@H]2N(CCc3ccc(Cl)c(Cl)c3)C(=O)O[C@]12C [Example 5, 3'-N-Desmethyl-3'-N-cyclohexyl-11-deoxy-11-[carboxy-(3,4-dichlorophenethylamino)]-6-O-methyl-erythromycin A 11,12-(cyclic carbamate)]	3.63 nM	
CC[C@H]1OC(=O)[C@H](C)[C@@H](O[C@H]2C[C@@](C)(OC)[C@@H](O)[C@H](C)O2)[C@H](C)[C@@H](O[C@@H]2O[C@H](C)C[C@H](N(C)Cc3ccc(CO)o3)[C@H]2O)[C@](C)(OC)C[C@@H](C)C(=O)[C@H](C)[C@H]2N(CCc3ccc(F)c(Cl)c3)C(=O)O[C@]12C [Example 46, 3'-N-Desmethyl-3'-N-[2-(5-hydroxymethyl)furyl]methyl-11-deoxy-11-[carboxy-(3-chloro-4-fluorophenethylamino)]-6-O-methyl-erythromycin A 11,12-(cyclic carbamate)]	1.15 nM	
CC[C@H]1OC(=O)[C@H](C)[C@@H](O[C@H]2C[C@@](C)(OC)[C@@H](O)[C@H](C)O2)[C@H](C)[C@@H](O[C@@H]2O[C@H](C)C[C@H](N(C)C(C)CCc3ccc(O)cc3)[C@H]2O)[C@](C)(OC)C[C@@H](C)C(=O)[C@H](C)[C@H]2N(CCc3ccc(Cl)c(Cl)c3)C(=O)O[C@]12C (stereo partly shown) [Example 85, 3'-N-Desmethyl-3'-N-(1-methyl)[3-(4-hydroxy)phenyl]propyl-11-deoxy-11-[carboxy-(3,4-dichlorophenethylamino)]-6-O-methyl-erythromycin A 11,12-(cyclic carbamate)]	5.89 nM	
CCCN(C)[C@H]1C[C@@H](C)O[C@@H](O[C@@H]2[C@@H](C)[C@H](O[C@H]3C[C@@](C)(OC)[C@@H](O)[C@H](C)O3)[C@@H](C)C(=O)O[C@H](CC)[C@@]3(C)OC(=O)N(CCc4ccc5c(c4)OCCO5)[C@@H]3[C@@H](C)C(=O)[C@H](C)C[C@@]2(C)OC)[C@@H]1O [Example 54, 3'-N-Desmethyl-3'-N-propyl-11-deoxy-11-[carboxy-[3 4-(1,4-dioxano)phenethylamino)]}-6-O-methyl-erythromycin A 11,12-(cyclic carbamate)]	4.07 nM	
CC[C@H]1OC(=O)[C@H](C)[C@@H](O[C@H]2C[C@@](C)(OC)[C@@H](O)[C@H](C)O2)[C@H](C)[C@@H](O[C@@H]2O[C@H](C)C[C@H](N(C)C3CCCC3)[C@H]2O)[C@](C)(OC)C[C@@H](C)C(=O)[C@H](C)[C@H]2N(CCc3ccc4c(c3)OCO4)C(=O)O[C@]12C [Example 15, 3'-N-Desmethyl-3'-N-cyclopentyl-11-deoxy-11[carboxy-(3,4-dioxolanophenethylamino)]-6-O-methyl-erythromycin A 11,12-(cyclic carbamate)]	6.31 nM	
CC[C@H]1OC(=O)[C@H](C)[C@@H](O[C@H]2C[C@@](C)(OC)[C@@H](O)[C@H](C)O2)[C@H](C)[C@@H](O[C@@H]2O[C@H](C)C[C@H](N(C)Cc3cccc(C)n3)[C@H]2O)[C@](C)(OC)C[C@@H](C)C(=O)[C@H](C)[C@H]2N(CCc3ccc(F)c(Cl)c3)C(=O)O[C@]12C [Example 48, 3'-N-Desmethyl-3'-N-[2-(6-methyl)pyridyl]methyl-11-deoxy-11-[carboxy-(3-chloro-4-fluorophenethylamino)]-6-O-methyl-erythromycin A 11,12-(cyclic carbamate)]	1.91 nM	

— patent US5955440A, “Macrolide LHRH antagonists” (Abbott Laboratories, priority 1998, dated 1999)
